The subject of one experiment is MGC80-3 cells. On the set-up: method as in earlier work. The note with it: MGC80-3, 48 h; ref [1]; cited from earlier work.
Experiment [1] relates to F32T+H20M (DNA, duplex) CCGCATCTCTACATTCAAGAACTGGCATGCGG/GCCAGTTCTTGAATGTAGAG
The experiment is described as follows: FRET melting. Particulars: 100 mM K+; 10 mM Tris-HCl, pH 7.35; 2.0 μM compound, 1.0 μM DNA.

The subject of another experiment is F32T+H20M duplex DNA. The experiment in a line: FRET-melting assay. It counts as binding. The note with it: F32T+H20M duplex DNA 1.0 μM, compound 2.0 μM. On the procedure: (§1) We asked whether chiral platinum(II) complexes 4–6 have the ability to bind to G-quadruplex DNA. To address this, FRET assays, CD spectroscopy, G4-FID assays, and fluorescence titration analysis were performed. […] For G4-HTG21, the ^G4DC50 values of complexes 4–6 were 1.23, 1.26 and 0.99 μM, respectively; while, for G4-Pu27, the ^G4DC50 values were 1.01, 0.89, and 0.82 μM, respectively. In addition, the ^ctDNADC50/^G4DC50 ratio of the HTG21 and Pu27 G4s treated with complexes 4–6 was in the range of 50.54-90.65 and 71.56-110.67 folds, respectively. To further evaluate the binding ability of complexes 4–6 to Pu27 and HTG21G4s, CD spectroscopy and fluorescence titration analysis were performed. […] The quenching ability of complexes 4–6 to HTG21 and Pu27 G4 DNA fluorescence can be quantitatively estimated by their respective quenching constant (Kq), which was derived from the Stern-Volmer quenching equation. […] Finally, the selective binding of complexes 4–6 towards G4 DNA was analyzed by FRET-melting assays. […] In contrast, the ΔTm value for the F32T+H20M duplex DNA in the presence of complexes 4–6 was 1.18, 1.34, and 0.78 °C under the same conditions (Figure 4A). Altogether, our data indicated complexes 4–6, especially complex 6, is the best binder to G4 DNA, which caused DNA complex displaying the highest thermodynamic stability.
(§2) Figure 4 Complexes 4–6 induced telomeres damage and inhibited the telomerase activity through directly regulating the mRNA level of c-myc promoter (Pu27) (A) ΔTm data (°C) of 1.0 μM HTG21, Pu39 and c-myc G4s and duplex DNA (F32T+H20M) treated with complexes 1–6 at 0–2.0 μM were evaluated by […]. (B) The levels of TRF2, 53BP1, and TRF1 in BEL-7404 cells treated with complexes 4–6 at 10 μM for 24 h were examined by Western blot. (C) The whole-cell extracts were prepared and analyzed by Western blot analysis using antibodies against TRF2, 53BP1, and TRF1. The same blots were stripped and re-probed with β-actin antibody to show equal protein loading. Western blotting bands from three independent measurements were quantified with Image J. in (B). (D) The influence of complexes 4–6 (10 μM) on the telomerase activity of the BEL-7404 cells for 24 h. (E) The investigations of the expression of c-myc and hTERT in the BEL-7404 tumor cells when incubated with complexes 4–6 (10 μM) for 24 h. C-myc and hTERT protein levels in BEL-7404 cells were analyzed by western blot. (F) The whole-cell extracts were prepared and analyzed by Western blot analysis using antibodies against c-myc and hTERT. The same blots were stripped and re-probed with β-actin antibody to show equal protein loading. Western blotting bands from three independent measurements were quantified with Image J. in (E). (G) qRT-PCR analysis of the expression levels of hTERT and c-myc in the BEL-7404 cells treated with complexes 4–6 (10 μM). The BEL-7404 cells (5×10^5) were treated with complexes 4–6 (10 μM) for 24 h. The total RNA in the cells was extracted and subjected to reverse transcription, followed by PCR for c-myc, hTERT, and GAPDH (control). (H) and (I) The investigations of the role of the transfections of EGFP plasmid vector (H) and c-myc plasmid vector (I) in the BEL-7404 tumor cells when incubated with complexes 4–6 (10 μM) for 24 h. First, 2.0 μg of EGFP-carrying plasmid vector or 2.0 μg of c-myc-carrying plasmid vector was cotransfected into BEL-7404 cells using Lipofectamine 2000 (Invitrogen, Grand Island, NY, USA). Complexes 4–6 (10 μM) were then added, respectively, into medium at 6.0 h after transfection of c-myc plasmid. At another 24 h after treatment with complexes 4–6 (10 μM), these cells were imaged using Nikon TE2000 (Japan) scanning fluorescent microscope or were examined by Multimodel Plate Reader with luciferase reporter gene assay kit. […]

In another experiment the test system is F21T. The experiment is described as follows: FRET-melting assay. Particulars: F21T 1.0 μM, compound 2.0 μM. It counts as binding. The protocol: as §1, §2
Another experiment relates to FPu18T. The experiment in a line: FRET-melting assay. It counts as binding. The note with it: FPu18T 1.0 μM, compound 2.0 μM. The protocol: as §1, §2
The test system of a further experiment is ds26. The experiment is described as follows: FID assay. It counts as binding. Particulars: for ds26DC50: FID; for ctDNADC50/ds26DC50: FID selectivity ratio.

Here are results for six compounds from PMC5617480 (Oncotarget, 2017).

On to `O=C(NCC(O)CO)c1cnc2c3c(cccc13)-c1ccccc1C2=O.[Cl-].[Cl-].[Pt+2]` (racemic) [ligand 1, R/S-(±)-FOA], for which the IC50 in the experiment on MGC80-3 cells was 32.4 ± 0.8 µM. For the same compound, the ΔTm in experiment [1] turned out to be 1.18 °C.

With `O=C(NC[C@@H](O)CO)c1cnc2c3c(cccc13)-c1ccccc1C2=O.[Cl-].[Cl-].[Pt+2]` [ligand 2, R-(+)-FOA], the IC50 in the experiment with MGC80-3 cells is 45.8 ± 2.8 µM. The ΔTm in experiment [1] was 1.34 °C.

As for `O=C(NC[C@H](O)CO)c1cnc2c3c(cccc13)-c1ccccc1C2=O.[Cl-].[Cl-].[Pt+2]` [ligand 3, S-(–)-FOA], in the experiment with MGC80-3 cells, the half-maximal inhibitory concentration (IC50) was 35.7 ± 2.9 µM. The ΔTm in experiment [1] was 0.78 °C.

As to cis-[PtCl2(R-(+)-FOA)] [complex 5], the ΔTm was found to be 1.34 °C in the experiment on F32T+H20M duplex DNA, 12.95 °C with F21T and 16.66 °C with FPu18T. Moreover, the ds26DC50 with ds26 was 2.23 µM. The ctDNADC50/ds26DC50 in the experiment on ds26 is 28.56.

Turning to cis-[PtCl2(R/S-(±)-FOA)] [complex 4], the ΔTm in the experiment on F32T+H20M duplex DNA is 1.18 °C; in the experiment on F21T, 13.19 °C; with FPu18T it was 19.15 °C. For the same compound, the ds26DC50 in the experiment on ds26 was 1.65 µM. Besides, in the experiment with ds26, the ctDNADC50/ds26DC50 was determined as 45.98.

Take cis-[PtCl2(S-(–)-FOA)] [complex 6]: the thermal shift (ΔTm) in the experiment on F32T+H20M duplex DNA is 0.78 °C; with F21T, 20.07 °C; in the experiment with FPu18T, 23.01 °C. This compound returned a ds26DC50 in the experiment on ds26 of 1.39 µM. Moreover, the ctDNADC50/ds26DC50 in the experiment with ds26 was 65.27.
